Literature values as cited in paper PMC12824232 (Nature Communications, 2025).

What was measured:
[1] = system: ER+/HER2− advanced breast cancer; details: patients with ESR1 mutations, phase 3 trial
[2] = system: patients with ER+/HER2− advanced breast cancer; details: phase 2 trial

| patients with Grade 3/4 TRAEs [2] | SMILES | median PFS [1] |
| --- | --- | --- |
|  | CCNCCc1ccc(CN(CC)c2cc(OC)ccc2[C@@H]2CCc3cc(O)ccc3C2)cc1 [elacestrant] | 3.8 months |
| 6% | O=C1CC[C@H](N2Cc3cc(N4CCN(CC5CCN(c6ccc([C@@H]7c8ccc(O)cc8CC[C@@H]7c7ccccc7)cc6)CC5)CC4)ccc3C2=O)C(=O)N1 [vepdegestrant] |  |
